From US20050228046A1, “Alkylamine as an antimicrobial agent in ophthalmic compositions” (ADVANCED MEDICAL OPTICS, INC., priority 2004, published 2005)

Assays:
Assay in all cases: Microbiology challenge test, log drop
Type in all cases: cell-based
Conditions in all cases: for Log drop at 6 hour: Table 6: Myristylamine 0.001 % w/w
[1] = system: Staphylococcus aureus, ATCC 6538
Experimental: (§1) The following is the procedure by which various antimicrobial agents and solutions are tested for their ability to reduce microbial loads over short periods of time, typically 24 hours and less. The procedure is a basic microbiology challenge test, which involves the inoculation of test product aliquots with a known number of viable cells of several test organisms, and assay for the survivors at various time intervals. The results are used to calculate log drops at soak times and construct kill-curves (graphs of survivors versus time) if desired.
(§2) Candida albicans, ATCC 10231, is one of five organisms specified per FDA and ISO/CLI tests for the testing of contact lens disinfectants (FDA Premarket Notification (510k) Guidance Document for Contact Lens Care Products, Appendix B, Apr. 1, 1997 and ISO/FDIS 14729: Ophthalmic optics-Contact lens care products-Microbiological requirements and test methods for products and regimens for hygienic management of contact lenses, January 2001). Contact lens disinfectants are also known as contact lens multi-purpose solutions when they are used for rinsing, cleaning, disinfection, storage and rewetting contact lenses. The five FDA/ISO specified test organisms are listed below: • Serratia marcescens, ATCC 13880 • Staphylococcus aureus, ATCC 6538 • Pseudomonas aeruginosa, ATCC 9027 • Candida albicans, ATCC 10231 • Fusarium solani, ATCC 36031
(§3) The specific test procedure for testing antimicrobial activity against the five FDA/ISO specified test organisms is as follows (C. albicans is provided as a specific example): Test samples are sterile-filtered through a 0.22 micron sterile filter into sterile plastic high density polyethylene bottles or plastic flasks. A 10-mL aliquot of test sample is aseptically transferred into a sterile polystyrene plastic test tube. Sterile saline (0.90 w/v % NaCl) with 0.05 w/v % Polysorbate 80 (SS+TWEEN) is transferred into a separate control tube. All samples and control are stored at 20-25° C. throughout the duration of the test.
(§4) Test cultures of Candida albicans, ATCC 10231 are prepared in the conventional manner. Candida albicans cultures are grown on agar slants from primary frozen, lyophilized or “Culti-loop®” cultures. Three mL of sterile 0.9% saline is used to gently dislodge culture growth from the agar surface. The resulting harvest is transferred to an appropriate screw cap test tube containing glass beads and vortexed for approximately one minute. The vortexed harvest is diluted as needed with sterile 0.9% saline to prepare the culture inoculum with a concentration of 1×10e8 CFU/mL. Fifty microliters of culture inoculum is added to 10.0 mL of each test sample and control, so that the final inoculum level is in the range of 1×10e5 to 1×10e6 CFU(colony forming units) per mL of Candida albicans, ATCC 10231. Each sample and control tube is vortexed briefly to disperse the inoculum. Contact time intervals for testing activity against Candida are typically 4 or 6 hours, to conform to the intended product label instructions for contact lens soak time.
(§5) Aerobic Plate Count Methods are performed in order to quantitate test samples for their levels of survivors. At appropriate assay times, 0.5 mL well-vortexed aliquots are removed from sample tubes and added to glass test tubes containing 4.5 mL Letheen Neutralizing Broth media (Berton, Dickinson and Company, Sparks, Md.). After a previously determined, validated neutralizing time period, these samples are diluted 10-fold through serial dilutions using glass test tubes containing 4.5 mL Letheen Neutralizing Broth media. Aliquots of 0.1 mL are removed from each dilution tube and spread-plate applied to agar plates containing Sabouraud Dextrose Agar (SAB)(Berton, Dickinson and Company, Sparks, Md.). 10^1 to 10^4 CFU/mL survivor levels are quantitated. […]

[2] = system: Fusarium solani, ATCC 36031
Experimental: as §1, §2, §3, §4, §5

[3] = system: Candida albicans, ATCC 10231
Experimental: as §1, §2, §3, §4, §5

[4] = system: Pseudomonas aeruginosa, ATCC 9027
Experimental: as §1, §2, §3, §4, §5

[5] = system: Serratia marcescens, ATCC 13880
Experimental: as §1, §2, §3, §4, §5

[6] = Table 2A: Myristylamine 0.0003 % w/w, Tetronic 1307 0.05, pH 7.8
[7] = Table 2A: Myristylamine 0.0005 % w/w, Tetronic 1307 0.05, pH 7.8
[8] = Table 3: Myristylamine 0.0005 w/v % with WSCP 0.001, NaClO2 0.01, NaCitrate 0.4, T1307 0.05
[9] = Table 3: Myristylamine 0.0005 w/v %, WSCP 0.0, NaClO2 0.0, NaCitrate 0.0, T1307 0.05
[10] = Table 4: Myristylamine 0.0003 w/v % with PHMB 0.00003, Tetronic 1107 0.05, pH 7.8
[11] = Table 4: Myristylamine 0.0003 w/v %, PHMB 0, Tetronic 1107 0.05, pH 7.8
[12] = Table 5: Myristylamine 0.0005 w/v % with Polyquaternium-1 0.001, NaCitrate 0.6, Tetronic 1304 0.05, pH 7.8
[13] = Tween 80 0.0074, Polyquaternium-1 0, pH 7.3, 6 hour
[14] = Tween 80 0.0074, with Polyquaternium-1 0.000075, pH 7.3, 6 hour

`CCCCCCCCCCCCCCN` [Myristylamine] was tested, and the “Log Drop” value [1, 6] was 2.87, the “Log Drop” value [1, 7] was 4.8 and the “Log Drop” value [1, 8] was 3.74. The “Log Drop” value [1, 9] was 2.93, the “Log Drop” value [1, 10] was 4.21 and the “Log Drop” value [1, 11] was 2.87. The “Log Drop” value [1, 12] was 4.69, the “Log drop at 6 hour” value [1, 13] was 1.04 and the “Log drop at 6 hour” value [1, 14] was 3.21. The “Log Drop” value [2, 6] was >4.34, the “Log Drop” value [2, 7] was >4.34 and the “Log Drop” value [2, 8] was >4.34. The “Log Drop” value [2, 9] was >4.34, the “Log Drop” value [2, 10] was >4.34 and the “Log Drop” value [2, 11] was >4.34. The “Log Drop” value [2, 12] was >4.34, the “Log drop at 6 hour” value [2, 13] was 3.73 and the “Log drop at 6 hour” value [2, 14] was 3.12. For the same compound, the “Log Drop” value [3, 6] was 3.67, the “Log Drop” value [3, 7] was 4.41 and the “Log Drop” value [3, 8] was 2.95. For the same compound, the “Log Drop” value [3, 9] was 3.29, the “Log Drop” value [3, 10] was 3.31 and the “Log Drop” value [3, 11] was 3.67. The “Log Drop” value [3, 12] was 4.52, the “Log drop at 6 hour” value [3, 13] was >4.67 and the “Log drop at 6 hour” value [3, 14] was >4.67. For the same compound, the “antimicrobial activity against C. albicans” value ([3]; result in words, Table 2A data) was “strong antimicrobial activity against C. albicans”, the “Log Drop” value [4, 6] was >4.63 and the “Log Drop” value [4, 7] was >4.63. For the same compound, the “Log Drop” value [4, 8] was >4.63, the “Log Drop” value [4, 9] was >4.63 and the “Log Drop” value [4, 10] was >4.63. For the same compound, the “Log Drop” value [4, 11] was >4.63, the “Log Drop” value [4, 12] was >4.63 and the “Log drop at 6 hour” value [4, 13] was >4.58. The “Log drop at 6 hour” value [4, 14] was >4.58, the “Log Drop” value [5, 6] was 1.18 and the “Log Drop” value [5, 7] was 2.6. For the same compound, the “Log Drop” value [5, 8] was 3.1, the “Log Drop” value [5, 9] was 1.68 and the “Log Drop” value [5, 10] was 3.46. The “Log Drop” value [5, 11] was 1.18, the “Log Drop” value [5, 12] was 3.64 and the “Log drop at 6 hour” value [5, 13] was 1.19. The “Log drop at 6 hour” value [5, 14] was 3.12.
